Earlier results, collected in patent US11351185B2, “Use of isovalerylspiramycins as anti-cancer agents to inhibit metastasis” (priority 2020, dated 2022).

Legend:
[1] = system: human cancer lines; conditions: MCF-7, MDA-MB-231, HepG2, A549, H460, H1299, 786-0, 769-P, U251, A172, U937, HeLa, PC3, PANC-1, TE-1, SGC-7901, HT-29, HL-60; cited from earlier work
[2] = system: in vivo cancer parameters; conditions: animal models; cited from earlier work

Row | Compound | effect on proliferation in vitro of human cancer lines [1] | in vivo cancer parameters such as tumor growth rate and relative tumor volume [2]
1 | CO[C@@H]1[C@@H](O[C@@H]2O[C@H](C)[C@@H](O[C@H]3C[C@@](C)(O)[C@@H](OC(=O)CC(C)C)[C@H](C)O3)[C@H](N(C)C)[C@H]2O)[C@@H](CC=O)C[C@@H](C)[C@@H](O[C@H]2CC[C@H](N(C)C)[C@@H](C)O2)/C=C/C=C/C[C@@H](C)OC(=O)C[C@H]1OC(C)=O [ISP II, 4″-isolvalerylspiramycin II] | inhibitory effect | reduction
2 | CCC(=O)O[C@@H]1CC(=O)O[C@H](C)C/C=C/C=C/[C@H](O[C@H]2CC[C@H](N(C)C)[C@@H](C)O2)[C@H](C)C[C@H](CC=O)[C@H](O[C@@H]2O[C@H](C)[C@@H](O[C@H]3C[C@@](C)(O)[C@@H](OC(=O)CC(C)C)[C@H](C)O3)[C@H](N(C)C)[C@H]2O)[C@H]1OC [ISP III, 4″-isolvalerylspiramycin III] | inhibitory effect | reduction
